# Results: US10000498B2, “Selective proton coupled folate transporter and folate receptor, and GARFTase inhibitor compounds and methods of using the same” (Duquesne University of the Holy Spirit, priority 2008, dated 2018)
# Read-outs that look alike come from different tables or passages of the source.
# Assays:
# [1] = test system: R2/VC cells (vector control R2 CHO); assay: Growth inhibition of vector control R2 CHO cells (Cell TiterBlue, 96 h); format: cell-based, Chinese hamster; details: Cricetulus griseus, read-out: Growth inhibition 50% inhibitory concentration, R2/VC
# [2] = test system: KB human tumor cells (hRFC/FRα); assay: Growth inhibition of KB human tumor cells (Cell Titer-blue cytotoxicity screen), with or without folic acid; format: cell-based
# [3] = target: thymidylate synthase (TS) (Homo sapiens, UniProt P04818); details: cited from earlier work
# Chain of thymidylate synthase (TS) (P04818 whole entry, species assumed): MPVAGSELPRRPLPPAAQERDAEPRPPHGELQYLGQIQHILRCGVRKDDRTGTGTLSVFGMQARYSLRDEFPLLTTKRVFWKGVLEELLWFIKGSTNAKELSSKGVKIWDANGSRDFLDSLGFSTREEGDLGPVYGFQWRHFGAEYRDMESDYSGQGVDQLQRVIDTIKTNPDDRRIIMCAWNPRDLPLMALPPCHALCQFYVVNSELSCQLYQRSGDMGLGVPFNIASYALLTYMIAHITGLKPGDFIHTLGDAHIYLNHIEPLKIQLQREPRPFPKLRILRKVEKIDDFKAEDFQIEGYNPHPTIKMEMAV
# [4] = mouse, in vivo; cited from earlier work
# [5] = target: T1, purified recombinant mouse GARFTase (Mus musculus, UniProt Q64737); assay: In vitro GARFTase inhibition assay; format: biochemical; details: purified recombinant mouse GARFTase; mean IC50, SEM in parentheses
# T1 sequence (Q64737 2-1010 limits assumed): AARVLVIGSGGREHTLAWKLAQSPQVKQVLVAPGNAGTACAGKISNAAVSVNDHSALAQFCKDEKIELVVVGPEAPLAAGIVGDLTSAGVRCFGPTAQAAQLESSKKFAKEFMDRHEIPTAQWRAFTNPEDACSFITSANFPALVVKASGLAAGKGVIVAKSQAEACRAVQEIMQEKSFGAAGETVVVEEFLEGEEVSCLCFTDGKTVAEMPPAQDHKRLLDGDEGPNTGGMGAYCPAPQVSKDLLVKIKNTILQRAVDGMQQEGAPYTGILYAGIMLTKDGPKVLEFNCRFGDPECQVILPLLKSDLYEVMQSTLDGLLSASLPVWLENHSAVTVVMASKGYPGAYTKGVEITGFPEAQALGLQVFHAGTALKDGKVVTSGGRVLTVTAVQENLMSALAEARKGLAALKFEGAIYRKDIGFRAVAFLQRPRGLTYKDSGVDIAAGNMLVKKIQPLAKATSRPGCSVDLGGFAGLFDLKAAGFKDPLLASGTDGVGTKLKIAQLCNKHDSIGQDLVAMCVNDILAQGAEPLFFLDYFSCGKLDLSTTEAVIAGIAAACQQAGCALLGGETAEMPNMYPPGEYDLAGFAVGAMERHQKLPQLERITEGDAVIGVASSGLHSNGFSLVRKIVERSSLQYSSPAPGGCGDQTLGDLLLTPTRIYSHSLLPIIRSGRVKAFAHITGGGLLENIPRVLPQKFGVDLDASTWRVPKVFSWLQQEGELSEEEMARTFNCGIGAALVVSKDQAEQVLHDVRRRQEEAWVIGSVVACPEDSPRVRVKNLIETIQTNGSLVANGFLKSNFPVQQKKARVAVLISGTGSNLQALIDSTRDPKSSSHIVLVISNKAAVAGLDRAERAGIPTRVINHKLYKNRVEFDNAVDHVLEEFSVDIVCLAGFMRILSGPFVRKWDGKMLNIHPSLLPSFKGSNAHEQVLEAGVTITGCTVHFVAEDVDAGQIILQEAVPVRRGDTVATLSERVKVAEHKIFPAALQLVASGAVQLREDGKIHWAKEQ
# [6] = in vivo; cited from earlier work
# [7] = test system: RT16 cells (hFRα-expressing Chinese hamster ovary); assay: Growth inhibition of FR-expressing RT16 CHO cells, with or without folic acid; format: cell-based; details: for IC50: Cricetulus griseus, RT16
# FRα = FRα (Homo sapiens, UniProt P15328); assay: FRα binding affinity relative to folic acid; details: folic acid set to 1
# Chain of FRα (P15328 25-234): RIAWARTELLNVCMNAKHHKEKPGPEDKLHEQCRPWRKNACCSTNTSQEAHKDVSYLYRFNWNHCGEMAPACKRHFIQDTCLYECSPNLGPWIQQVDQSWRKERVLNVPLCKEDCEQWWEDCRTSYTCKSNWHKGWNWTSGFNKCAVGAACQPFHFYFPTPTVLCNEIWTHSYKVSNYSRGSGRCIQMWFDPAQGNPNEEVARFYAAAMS
# [8] = test system: R2 CHO cells (hRFC- and FR-null); assay: Growth inhibition of hRFC- and FR-null R2 CHO cells; format: cell-based, Chinese hamster; details: Cricetulus griseus, RPMI1640/10% dialyzed fetal bovine serum, mean of 2-3 experiments
# [9] = test system: PC43-10 cells (hRFC-expressing Chinese hamster ovary); assay: Growth inhibition of hRFC-expressing PC43-10 CHO cells; format: cell-based
# GARFTase = target: T2, GARFTase (Homo sapiens, UniProt P22102); assay: In situ GARFTase assay (14C-glycine incorporation into formyl glycinamide ribonucleotide); format: cell-based; details: mean IC50, SEM in parentheses
# T2 construct: In the in situ GARFTase assay, incorporation of ^14C-glycine into formyl glycinamide ribonucleotide was measured; endogenous in cells
# T2 sequence (P22102 1-1010): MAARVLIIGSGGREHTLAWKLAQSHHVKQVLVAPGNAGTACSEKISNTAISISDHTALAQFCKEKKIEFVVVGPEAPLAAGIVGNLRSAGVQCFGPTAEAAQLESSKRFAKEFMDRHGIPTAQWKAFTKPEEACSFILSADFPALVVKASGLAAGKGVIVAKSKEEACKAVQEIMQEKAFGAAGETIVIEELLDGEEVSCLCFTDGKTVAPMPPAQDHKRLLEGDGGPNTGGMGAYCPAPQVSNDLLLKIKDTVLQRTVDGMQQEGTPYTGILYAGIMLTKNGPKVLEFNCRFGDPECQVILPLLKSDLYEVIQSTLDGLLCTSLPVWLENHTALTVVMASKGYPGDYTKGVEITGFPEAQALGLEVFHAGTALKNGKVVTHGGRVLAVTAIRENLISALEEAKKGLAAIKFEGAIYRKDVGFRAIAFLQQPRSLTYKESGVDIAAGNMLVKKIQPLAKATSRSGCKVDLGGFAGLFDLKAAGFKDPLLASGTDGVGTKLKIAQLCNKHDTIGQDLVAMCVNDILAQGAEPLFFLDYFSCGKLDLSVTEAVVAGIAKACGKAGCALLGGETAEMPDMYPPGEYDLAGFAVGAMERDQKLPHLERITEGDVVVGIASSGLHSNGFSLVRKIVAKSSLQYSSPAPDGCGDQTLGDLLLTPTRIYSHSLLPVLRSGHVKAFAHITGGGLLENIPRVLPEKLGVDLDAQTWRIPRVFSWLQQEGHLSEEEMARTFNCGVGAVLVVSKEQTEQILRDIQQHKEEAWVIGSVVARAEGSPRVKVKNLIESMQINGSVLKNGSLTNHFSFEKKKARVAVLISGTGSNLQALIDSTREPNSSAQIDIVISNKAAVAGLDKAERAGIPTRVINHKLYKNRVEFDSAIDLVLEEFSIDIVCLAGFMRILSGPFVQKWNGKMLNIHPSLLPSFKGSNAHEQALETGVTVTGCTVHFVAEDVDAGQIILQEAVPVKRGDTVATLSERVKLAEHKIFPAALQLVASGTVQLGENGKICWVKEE
# [10] = folate-free RPMI1640/10% dialyzed FBS, 25 nM leucovorin
# [11] = Homo sapiens, RPMI1640/10% dialyzed fetal bovine serum, without folic acid, read-out: Growth inhibition (IC50, nM) hRFC/FRα KB
smiles,measurement,setting,value
"CN(Cc1cnc2nc(N)nc(N)c2n1)c1ccc(C(=O)N[C@@H](CCC(=O)O)C(=O)O)cc1 [Methotrexate, methotrexate]",IC50,[1]; [10],> 1000 nM
"Cc1nc2ccc(CN(C)c3ccc(C(=O)N[C@@H](CCC(=O)O)C(=O)O)s3)cc2c(=O)[nH]1 [Raltitrexed, raltitrexed, reference compound]",IC50,[1]; [10],604 ± 53.6 nM
"Nc1nc2[nH]c(CCCCc3ccc(C(=O)N[C@@H](CCC(=O)O)C(=O)O)o3)cc2c(=O)[nH]1 [AAG154489, (S)-2-({5-[4-(2-amino-4-oxo-4,7-dihydro-3H-pyrrolo[2,3-d]pyrimidin-6-yl)-butyl]-furan-2-carbonyl}-amino)-pentanedioic acid]",IC50,[2]; [11],0.3 nM
C#CCN(c1ccc(C(=O)N[C@@H](CCC(=O)N[C@H](CCC(=O)O)C(=O)O)C(=O)O)cc1)[C@H]1CCc2cc3nc(CO)[nH]c(=O)c3cc21 [BGC945],Inhibition of thymidylate synthase (TS) within cells,[3],potently inhibit
same,Toxicity to normal tissues in mice,[4],no toxicity to normal tissues
C#CCN(c1ccc(C(=O)N[C@@H](CCC(=O)N[C@H](CCC(=O)O)C(=O)O)C(=O)O)cc1)[C@H]1CCc2cc3nc(C)[nH]c(=O)c3cc21 [BGC638],Inhibition of thymidylate synthase (TS) within cells,[3],potently inhibit
"Nc1nc2[nH]cc(CCc3ccc(C(=O)N[C@@H](CCC(=O)O)C(=O)O)cc3)c2c(=O)[nH]1 [Pemetrexed, pemetrexed, reference compound]",IC50,[1],150 ± 22.5 nM
"Nc1nc2[nH]c(CCC#Cc3ccc(C(=O)N[C@@H](CCC(=O)O)C(=O)O)s3)cc2c(=O)[nH]1 [AAG154468, (S)-2-({5-[4-(2-amino-4-oxo-4,7-dihydro-3H-pyrrolo[2,3-d]pyrimidin-6-yl)-but-1-ynyl]-thiophene-2-carbonyl}-amino)-pentanedioic acid]",IC50,[2]; [11],122 nM
same,melting point,,196 to 197 °C
"Cc1nc2ccc3ccc(CNc4ccc5c(c4)CN([C@@H](CCC(=O)O)C(=O)O)C5=O)cc3c2c(=O)[nH]1 [GW1843U89, reference compound]",IC50,"[2]; RPMI1640/10% dialyzed fetal bovine serum, without folic acid, read-out: Growth inhibition (IC50, nM) hRFC/FRα KB",5.8 nM
same,IC50,"[2]; co-treatment with folic acid (200 nM), read-out: Growth inhibition (IC50, nM) hRFC/FRα KB (+FA)",32 nM
"Nc1nc2c(c(=O)[nH]1)C[C@@H](CCc1ccc(C(=O)N[C@@H](CCC(=O)O)C(=O)O)cc1)CN2 [Lometrexol, lometrexol, reference compound]",IC50,[5],780 nM
same,IC50,[1],> 1000 nM
same,Toxicity in phase 1 studies,[6],severe myelosupression
"Nc1nc2[nH]c(CCCCCc3ccc(C(=O)N[C@@H](CCC(=O)O)C(=O)O)s3)cc2c(=O)[nH]1 [AAG154360, (S)-2-({5-[5-(2-amino-4-oxo-4,7-dihydro-3H-pyrrolo[2,3-d]pyrimidin-6-yl)-pentyl]-thiophene-2-carbonyl}-amino)-pentanedioic acid]",IC50,"[7]; RPMI1640/10% dialyzed fetal bovine serum, without folic acid, read-out: Growth inhibition (IC50, nM) hFRα RT16",2 nM
same,IC50,"[7]; in the presence of an elevated concentration of folic acid, read-out: Growth inhibition (IC50, nM) hFRα RT16 (+FA)",> 1000 nM
same,Growth inhibition / FR-targeted activity toward RT16 cells (in words),[7]; cells expressing FRα,high level of FR-targeted activity
same,IC50,[5],3310 nM
same,IC50,[2]; [11],3.4 nM
same,IC50,"[2]; Homo sapiens, co-treatment with folic acid (200 nM), read-out: Growth inhibition (IC50, nM) hRFC/FRα KB (+FA)",> 1000 nM
same,Effect of folic acid co-treatment on growth inhibition of KB cells,[2]; folic acid 200 nM,completely reversed growth inhibition
same,FRα binding affinity compared to folic acid,FRα,very high binding affinities
same,IC50,[8],> 1000 nM
same,IC50,"[9]; Cricetulus griseus, PC43-10, RPMI1640/10% dialyzed fetal bovine serum, mean of 2-3 experiments, read-out: Growth inhibition (IC50, nM) hRFC PC43-10",> 1000 nM
same,Growth inhibition of hRFC-expressing PC43-10 cells (in words),[9]; only RFC,Neither AAG154353 and AAG154360 showed appreciable growth inhibition
same,IC50,GARFTase,7.65 nM
